From patent US20110171663A1, “MICROTRENCH AND TUMOUR PROLIFERATION ASSAY” (University College Cardiff Consultants Ltd, priority 2008, published 2011)

Test system: U-2 OS (ATCC HTB-96) human osteosarcoma cell line
Test: Timelapse imaging determination of sequential intermitotic times (IMT1, IMT2) in cell lineages
Assay type: cell-based
Settings: U-2 OS lineages from progenitors exposed to 10 μM topotecan for 1 h
Experimental: Human osteosarcoma cell line (U-2 OS (ATCC HTB-96)23) derived from a person were used. The cells were maintained at 37° C. and 5% CO2 using standard tissue culture techniques. Media used was McCoys 5A modified (Sigma) supplemented with 2 mM glutamine, 100 units/ml penicillin, 100 μg/ml streptomycin and 10% fetal calf serum. The cells were seeded onto tissue culture plastic, PDMS layer with and without PDMS microtrench arrays and placed in a six-well multi-well dish (10^4 cells per ml) and left to establish for 24 hours. Post-24 hours incubation the culture dish was then immediately placed onto a timelapse imaging instrument designed to capture transmission phase images from multi-well plates. An Axiovert 100 microscope (Carl Zeiss, Welwyn Garden City, UK) was fitted with an incubator for 37° C./5% CO2 maintenance (Solent Scientific, Portsmouth, UK), and an ORCA-ER CCD camera (Hamamatsu, Reading, UK). All images were collected with a x10 (PH1) apochromat objective lens providing a full view of each microtrench format. Sequences were captured sampling at 15 min, and for three fields per treatment regime (using AQM, Kinetic Imaging, Nottingham, UK). MetaMorph software (Molecular Devices, California) was used to view the stacked image in sequence as for each experiment the images were stacked and saved as *.stk format. […]

## CC[C@@]1(O)C(=O)OCc2c1cc1n(c2=O)Cc2cc3c(CN(C)C)c(O)ccc3nc2-1 [topotecan]
Time between the division generating daughters and the division generating granddaughters
  IMT2 (av ± sd): 22.9 ± 5.5
Time between the division generating the mother cell and the division generating two daughters
  IMT1 (av ± sd): 24 ± 4.4
